Assays:
Assay in all cases: spectrophotometric GST assay, steady state
Format in all cases: biochemical
Conditions in all cases: co-substrate GSH; pH and temperature not given; read-out: K m ^CDNB
LmGSTS7 = target: T1, LmGSTS7 (Locusta migratoria, UniProt F4YUJ6)
T1 construct: full-length ORF in pET28a, E. coli BL21(DE3), His-tag Ni-NTA purified
T1 sequence (F4YUJ6 1-204): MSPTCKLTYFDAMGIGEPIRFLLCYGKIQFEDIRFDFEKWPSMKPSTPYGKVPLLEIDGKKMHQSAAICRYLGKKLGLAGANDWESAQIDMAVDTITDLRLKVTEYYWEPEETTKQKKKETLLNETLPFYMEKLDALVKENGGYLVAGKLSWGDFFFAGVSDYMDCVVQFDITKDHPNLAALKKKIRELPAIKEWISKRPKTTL
Source text: spectrophotometric GST assay, steady state on LmGSTS7

LmGSTE1 = target: T2, LmGSTE1 (Locusta migratoria, UniProt V9Q4G7)
T2 construct: gene GSTe1; full-length ORF in pET28a, E. coli BL21(DE3), His-tag Ni-NTA purified
T2 sequence (V9Q4G7 1-222): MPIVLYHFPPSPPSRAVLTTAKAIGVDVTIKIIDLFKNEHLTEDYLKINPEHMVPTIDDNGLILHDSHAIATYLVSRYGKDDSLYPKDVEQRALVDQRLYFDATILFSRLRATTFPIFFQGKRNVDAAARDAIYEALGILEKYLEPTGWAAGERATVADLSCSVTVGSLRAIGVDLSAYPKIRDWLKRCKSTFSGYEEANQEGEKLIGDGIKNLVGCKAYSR
Source text: spectrophotometric GST assay, steady state on LmGSTE1

LmGSTT2 = target: T3, LmGSTT2 (Locusta migratoria, UniProt V9Q331)
T3 construct: gene GSTt2; full-length ORF in pET28a, E. coli BL21(DE3), His-tag Ni-NTA purified
T3 sequence (V9Q331 1-231): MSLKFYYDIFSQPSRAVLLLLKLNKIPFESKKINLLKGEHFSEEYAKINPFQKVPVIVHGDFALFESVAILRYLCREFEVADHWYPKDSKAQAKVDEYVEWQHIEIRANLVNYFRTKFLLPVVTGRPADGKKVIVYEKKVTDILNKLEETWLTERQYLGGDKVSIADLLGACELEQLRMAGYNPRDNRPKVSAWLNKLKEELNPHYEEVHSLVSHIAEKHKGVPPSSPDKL
Source text: spectrophotometric GST assay, steady state on LmGSTT2

**Q.** Which results are given for O=[N+]([O-])c1ccc(Cl)c([N+](=O)[O-])c1 [CDNB]?
**A.** Km (LmGSTS7): 46 ± 1 µM; Km (LmGSTE1): 7 ± 1 µM; Km (LmGSTT2): 393 ± 49 µM

Source: paper PMC4259467, “Molecular Cloning, Characterization and Positively Selected Sites of the Glutathione S-Transferase Family from Locusta migratoria” (PLoS ONE, 2014)
